Patent publication US20230322723A1, “COMPOUNDS FOR SUPPRESSING EGFR MUTANT CANCER AND PHARMACEUTICAL USE THEREOF” (J2H BIOTECH INC., priority 2020, published 2023)

Legend:
[1] = Pharmacokinetic evaluation after single oral administration to ICR mice; format: in vivo; details: for half-life / AUC(0-t): mouse, ICR mice, single oral dose 5 mg/kg, plasma; for AUC(0-t): read-out: AUC0-24; for AUC compared to the corresponding compounds: 69, 70, 75, 78, 82 vs compounds 53 and 65
Method: Pharmacokinetic tests for the compounds of the present invention were conducted as below. After a single oral administration of the compound of the present invention to ICR mice, the concentration of the compound over time was followed up and analyzed.
The compound of the present invention was suspended in 10% DMSO/90% (30% HPbCD aqueous solution) and orally administered to mice at a dose of 5 mg/kg. Blood was collected at a fixed time and plasma was separated. Drug analysis was performed using HPLC (XBridge column C18, Waters, mobile phase 0.1% formic acid:acetonitrile (30:70, %/%)) and MS/MS (ESI positive, MRM). Mouse blood plasma and each commercially available standard solution were mixed at a ratio of 9:1 to prepare and calibrate at concentrations of […] 5,000 ng/mL. In addition, the preparation of QC samples was prepared by mixing the mouse blood plasma and the standard solution for QC at a ratio of 9:1, and prepared to be concentrations of 100, 750 and 2,500 ng/mL. 100 μL of the plasma sample was transferred to a centrifugation tube, and 10 μL of the internal standard solution and 300 μL of methanol were added, followed by mixing for about 30 seconds for pretreatment. The tube was centrifuged at 3,000×g (4° C.) for about 5 minutes, and the supernatant was taken and transferred to an LC vial and injected into the instrument. Then, the concentration of the compound in mouse plasma was quantified by applying a previously validated assay. For pharmacokinetic parameters, the program WinNonlin 5.2 (Pharsight, USA) was used. AUC0-t, AUC0-∞, Cmax, Tmax, and t1/2 were calculated by Noncompartment modeling (best fit). The pharmacokinetic parameter results were expressed as the mean (Mean) and standard deviation (SD), and were statistically processed using the SPSS program (Statistical Package for the Social Sciences, 10.0K, USA).

[2] = biological target: T1, EGFR^L858R+T790M+C797S (Homo sapiens, UniProt P00533, C797S/L858R/T790M); assay: EGFR protein degradation test (Western blot) in Ba/F3 cells expressing mutant EGFR L858R+T790M+C797S (LTC); format: cell-based; details: compounds at 0.1 μM and 1 μM, 24 hours, Western blot with EGFR antibody
T1 construct: expressed in transfected cells; host or cells: Ba/F3
Outline: (§1)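 EGFR protein level was measured by Western blot on 30 μg lysate, bands quantified by imager. Lysates came from Ba/F3 lines carrying normal, LTC or DTC mutant EGFR, exposed 24 h to compound at 0.1 and 1 μM.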

[3] = system: EGFR^del19+T790M+C797S; assay: EGFR protein degradation test (Western blot) in Ba/F3 cells expressing mutant EGFR del19+T790M+C797S (DTC); format: cell-based; details: compounds at 0.1 μM and 1 μM, 24 hours, Western blot with EGFR antibody
Outline: as §1

T1 sequence (P00533 25-1210 T790M/C797S/L858R): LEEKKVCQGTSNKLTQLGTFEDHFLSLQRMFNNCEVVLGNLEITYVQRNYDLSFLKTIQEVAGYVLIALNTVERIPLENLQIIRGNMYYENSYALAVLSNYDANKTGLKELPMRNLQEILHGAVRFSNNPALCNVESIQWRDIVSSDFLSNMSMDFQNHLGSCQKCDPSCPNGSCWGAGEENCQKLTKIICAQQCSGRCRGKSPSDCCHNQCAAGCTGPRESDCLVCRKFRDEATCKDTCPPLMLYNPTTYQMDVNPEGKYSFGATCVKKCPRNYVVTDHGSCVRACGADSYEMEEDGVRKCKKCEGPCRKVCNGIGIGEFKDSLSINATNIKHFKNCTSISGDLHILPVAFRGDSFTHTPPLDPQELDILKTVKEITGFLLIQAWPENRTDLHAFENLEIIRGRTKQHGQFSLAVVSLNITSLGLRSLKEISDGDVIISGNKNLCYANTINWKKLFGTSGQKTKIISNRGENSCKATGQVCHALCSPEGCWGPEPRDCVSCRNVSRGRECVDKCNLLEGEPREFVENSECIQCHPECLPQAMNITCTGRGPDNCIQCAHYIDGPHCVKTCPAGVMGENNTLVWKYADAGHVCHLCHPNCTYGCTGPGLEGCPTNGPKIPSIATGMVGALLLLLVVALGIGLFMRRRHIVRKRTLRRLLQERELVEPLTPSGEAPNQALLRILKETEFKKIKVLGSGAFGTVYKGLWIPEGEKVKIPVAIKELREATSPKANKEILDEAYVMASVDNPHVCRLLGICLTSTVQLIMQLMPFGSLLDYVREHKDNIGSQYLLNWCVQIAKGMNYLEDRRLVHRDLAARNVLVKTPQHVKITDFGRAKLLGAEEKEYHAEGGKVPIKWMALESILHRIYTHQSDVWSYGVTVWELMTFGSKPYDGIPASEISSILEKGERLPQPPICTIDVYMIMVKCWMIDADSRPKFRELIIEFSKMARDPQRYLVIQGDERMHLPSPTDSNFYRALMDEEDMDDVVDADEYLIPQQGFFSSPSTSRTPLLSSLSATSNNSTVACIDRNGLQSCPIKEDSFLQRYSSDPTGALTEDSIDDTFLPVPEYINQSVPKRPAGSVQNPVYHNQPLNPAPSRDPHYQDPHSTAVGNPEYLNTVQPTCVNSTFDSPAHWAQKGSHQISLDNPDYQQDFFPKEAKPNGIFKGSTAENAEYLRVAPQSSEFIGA

Row | Compound | half-life [1] | AUC(0-t) [1] | LTC (EGFR^L858R+T790M+C797S) protein degradation [2] | DTC (EGFR^del19+T790M+C797S) protein degradation [3] | AUC compared to the corresponding compounds [1]
1 | COc1cc(N2CCC(CN3CCN(CC(=O)Nc4cccc5c4CN(C4CCC(=O)NC4=O)C5=O)CC3)CC2)ccc1Nc1ncc(Cl)c(Nc2ccccc2N(C)S(C)(=O)=O)n1 (centres unmarked) [Compound 24, 2-(4-((1-(4-((5-chloro-4-((2-(N-methylmethylsulfonamido)phenyl)amino)pyrimidin-2-yl)amino)-3-methoxyphenyl)piperidin-4-yl)methyl)piperazin-1-yl)-N-(2-(2,6-dioxopiperidin-3-yl)-1-oxoisoindolin-4-yl)acetamide] | 12.4 h | 17 ng·h/mL | ++ (Protein degradation > 80%) | ++ (Protein degradation > 80%) | 
2 | COc1cc(N2CCN(CC3CCN(CC(=O)Nc4cccc5c4CN(C4CCC(=O)NC4=O)C5=O)CC3)CC2)ccc1Nc1ncc(Cl)c(Nc2ccccc2N(C)S(C)(=O)=O)n1 (centres unmarked) [Compound 26, 2-(4-((4-(4-((5-chloro-4-((2-(N-methylmethylsulfonamido)phenyl)amino)pyrimidin-2-yl)amino)-3-methoxyphenyl)piperazin-1-yl)methyl)piperidin-1-yl)-N-(2-(2,6-dioxopiperidin-3-yl)-1-oxoisoindolin-4-yl)acetamide] | 9.29 h | 32 ng·h/mL | ++ (Protein degradation > 80%) | ++ (Protein degradation > 80%) | 
3 | CN(c1ccccc1Nc1nc(Nc2ccc(N3CCN(CC4CCN(C(=O)COc5cccc6c5C(=O)N(C5CCC(=O)NC5=O)C6=O)CC4)CC3)c(F)c2)ncc1Cl)S(C)(=O)=O (centres unmarked) [Compound 43, N-(2-((5-chloro-2-((4-(4-((1-(2-((2-(2,6-dioxopiperidin-3-yl)-1,3-dioxoisoindolin-4-yl)oxy)acetyl)piperidin-4-yl)methyl)piperazin-1-yl)-3-fluorophenyl)amino)pyrimidin-4-yl)amino)phenyl)-N-methylmethanesulfonamide] | 5.07 h | 346 ng·h/mL | ++ (Protein degradation > 80%) | ++ (Protein degradation > 80%) | 
4 | COc1cc(N2CCC(N3CCN(CCNc4cccc5c4C(=O)N(C4CCC(=O)NC4=O)C5=O)CC3)CC2)ccc1Nc1ncc(Cl)c(Nc2ccccc2N(C)S(C)(=O)=O)n1 (centres unmarked) [Compound 45, N-(2-((5-chloro-2-((4-(4-(4-(2-((2-(2,6-dioxopiperidin-3-yl)-1,3-dioxoisoindolin-4-yl)amino)ethyl)piperazin-1-yl)piperidin-1-yl)-2-methoxyphenyl)amino)pyrimidin-4-yl)amino)phenyl)-N-methylmethanesulfonamide] | 3.45 h | 992 ng·h/mL | ++ (Protein degradation > 80%) | ++ (Protein degradation > 80%) | 
5 | COc1cc(N2CCC(N3CCN(CC(=O)Nc4ccc5c(c4)CN(C4CCC(=O)NC4=O)C5=O)CC3)CC2)ccc1Nc1ncc(Cl)c(Nc2ccccc2N(C)S(C)(=O)=O)n1 (centres unmarked) [Compound 47, 2-(4-(1-(4-((5-chloro-4-((2-(N-methylmethylsulfonamido)phenyl)amino)pyrimidin-2-yl)amino)-3-methoxyphenyl)piperidin-4-yl)piperazin-1-yl)-N-(2-(2,6-dioxopiperidin-3-yl)-1-oxoisoindolin-5-yl)acetamide] | 4.13 h | 134 ng·h/mL | ++ (Protein degradation > 80%) | ++ (Protein degradation > 80%) | 
6 | COc1cc(N2CCC(N3CCN(CCC4CCN(c5ccc6c(c5)C(=O)N(C5CCC(=O)NC5=O)C6=O)CC4)CC3)CC2)ccc1Nc1ncc(Cl)c(Nc2ccccc2N(C)S(C)(=O)=O)n1 (centres unmarked) [Compound 51, N-(2-((5-chloro-2-((4-(4-(4-(2-(1-(2-(2,6-dioxopiperidin-3-yl)-1,3-dioxoisoindolin-5-yl)piperidin-4-yl)ethyl)piperazin-1-yl)piperidin-1-yl)-2-methoxyphenyl)amino)pyrimidin-4-yl)amino)phenyl)-N-methylmethanesulfonamide] | 2.81 h | 635 ng·h/mL | ++ (Protein degradation > 80%) | ++ (Protein degradation > 80%) | 
7 | COc1cc(N2CCN(CC3CCN(C(=O)COc4cccc5c4C(=O)N(C4CCC(=O)NC4=O)C5=O)CC3)CC2)ccc1Nc1ncc(Cl)c(Nc2ccccc2N(C)S(C)(=O)=O)n1 (centres unmarked) [Compound 53, N-(2-((5-chloro-2-((4-(4-((1-(2-((2-(2,6-dioxopiperidin-3-yl)-1,3-dioxoisoindolin-4-yl)oxy)acetyl)piperidin-4-yl)methyl)piperazin-1-yl)-2-methoxyphenyl)amino)pyrimidin-4-yl)amino)phenyl)-N-methylmethanesulfonamide] | 3.65 h | 44 ng·h/mL | ++ (Protein degradation > 80%) | ++ (Protein degradation > 80%) | 
8 | COc1cc(N2CCN(CC3CCN(C(=O)CCc4cccc5c4C(=O)N(C4CCC(=O)NC4=O)C5=O)CC3)CC2)ccc1Nc1ncc(Cl)c(Nc2ccccc2N(C)S(C)(=O)=O)n1 (centres unmarked) [Compound 54, N-(2-((5-chloro-2-((4-(4-((1-(3-(2-(2,6-dioxopiperidin-3-yl)-1,3-dioxoisoindolin-4-yl)propanoyl)piperidin-4-yl)methyl)piperazin-1-yl)-2-methoxyphenyl)amino)pyrimidin-4-yl)amino)phenyl)-N-methylmethanesulfonamide] | 6.12 h | 840 ng·h/mL | ++ (Protein degradation > 80%) | ++ (Protein degradation > 80%) | 
9 | COc1cc(N2CCN(CC3CCN(C(=O)CNc4cccc5c4C(=O)N(C4CCC(=O)NC4=O)C5=O)CC3)CC2)ccc1Nc1ncc(Cl)c(Nc2ccccc2N(C)S(C)(=O)=O)n1 (centres unmarked) [Compound 65, N-(2-((5-chloro-2-((4-(4-((1-((2-(2,6-dioxopiperidin-3-yl)-1,3-dioxoisoindolin-4-yl)glycyl)piperidin-4-yl)methyl)piperazin-1-yl)-2-methoxyphenyl)amino)pyrimidin-4-yl)amino)phenyl)-N-methylmethanesulfonamide] | 4.01 h | 607 ng·h/mL | ++ (Protein degradation > 80%) | ++ (Protein degradation > 80%) | 
10 | COc1cc(N2CCN(CC3CCN(C(=O)[C@@H](C)Oc4cccc5c4C(=O)N(C4CCC(=O)NC4=O)C5=O)CC3)CC2)ccc1Nc1ncc(Cl)c(Nc2ccccc2N(C)S(C)(=O)=O)n1 (some centres unmarked) [Compound 69] | 3.22 h | 280 ng·h/mL | ++ (Protein degradation > 80%) | ++ (Protein degradation > 80%) | significantly improved AUC
11 | COc1cc(N2CCN(CC3CCN(C(=O)[C@H](C)Nc4cccc5c4C(=O)N(C4CCC(=O)NC4=O)C5=O)CC3)CC2)ccc1Nc1ncc(Cl)c(Nc2ccccc2N(C)S(C)(=O)=O)n1 (stereo partly drawn) [Compound 70, N-(2-((5-chloro-2-((4-(4-((1-((2-(2,6-dioxopiperidin-3-yl)-1,3-dioxoisoindolin-4-yl)-L-alanyl)piperidin-4-yl)methyl)piperazin-1-yl)-2-methoxyphenyl)amino)pyrimidin-4-yl)amino)phenyl)-N-methylmethanesulfonamide] | 3.07 h | 598 ng·h/mL | ++ (Protein degradation > 80%) | ++ (Protein degradation > 80%) | significantly improved AUC
12 | COc1cc(N2CCC(N3CCN(CC4CCN(c5ccc6c(c5)C(=O)N(C5CCC(=O)NC5=O)C6=O)CC4)CC3)CC2)ccc1Nc1ncc(Cl)c(Nc2ccccc2N(C)S(C)(=O)=O)n1 (centres unmarked) [Compound 71, N-(2-((5-chloro-2-((4-(4-(4-((1-(2-(2,6-dioxopiperidin-3-yl)-1,3-dioxoisoindolin-5-yl)piperidin-4-yl)methyl)piperazin-1-yl)piperidin-1-yl)-2-methoxyphenyl)amino)pyrimidin-4-yl)amino)phenyl)-N-methylmethanesulfonamide] | 7.77 h | 1230 ng·h/mL | ++ (Protein degradation > 80%) | + (Protein degradation 20~80%) | 
